Test [1] concerns the target Acyl-protein thioesterase 1 (Homo sapiens) (UniProt O75608). Description: concentration-dependent LYPLA1/LYPLA2 inhibition – gel-based ABPP, fluorescence, HEK293T proteome, dose response (AID 651990). The settings on record: HEK293T soluble proteome, gel-based ABPP FP-PEG-Rh fluorescence; LYPLA1.
The target of test [2] is Acyl-protein thioesterase 2 (Homo sapiens) (UniProt O95372). The test is described as above. As to conditions: HEK293T soluble proteome, gel-based ABPP FP-PEG-Rh fluorescence; LYPLA2.
Acyl-protein thioesterase 2 (Homo sapiens), sequence (O95372 whole entry, looked up): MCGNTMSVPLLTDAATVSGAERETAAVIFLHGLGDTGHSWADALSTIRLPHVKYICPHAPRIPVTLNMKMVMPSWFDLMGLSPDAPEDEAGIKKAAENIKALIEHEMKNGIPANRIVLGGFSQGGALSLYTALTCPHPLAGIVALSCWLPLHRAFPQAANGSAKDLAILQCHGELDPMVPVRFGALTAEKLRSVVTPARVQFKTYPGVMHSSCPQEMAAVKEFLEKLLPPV

Molecules are shown by their SMILES. Calls of active or inactive are those of the source. The rule behind the calls is not given here.

One may read the IC50 as the midpoint of a concentration-inhibition curve.

Acyl-protein thioesterase 1 (Homo sapiens), sequence (O75608 whole entry, looked up): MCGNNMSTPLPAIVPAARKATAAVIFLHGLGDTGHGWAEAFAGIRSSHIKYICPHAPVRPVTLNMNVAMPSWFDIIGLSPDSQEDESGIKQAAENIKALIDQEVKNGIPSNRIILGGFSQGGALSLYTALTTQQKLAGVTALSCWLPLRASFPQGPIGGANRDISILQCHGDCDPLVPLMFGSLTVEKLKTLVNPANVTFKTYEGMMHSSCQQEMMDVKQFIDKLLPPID

In the case of `COc1ccc(N2CCN(C(=O)c3cc4c(s3)-c3ccccc3S(=O)(=O)C4)CC2)cc1`, the IC50 in test [1] is > 3000 nM (inactive); in test [2], 144 nM.
For `O=C(CN1CCN(C(=O)c2ccco2)CC1)Nc1cc(C(F)(F)F)ccc1Cl`, the IC50 in test [2] was > 3000 nM (inactive).

These data come from PubChem BioAssay AID651990 (The Scripps Research Institute Molecular Screening Center, 2013).
